Data reported in patent publication US10807960B2, “Compounds, compositions, and methods for controlling biofilms” (KATHOLIEKE UNIVERSITEIT LEUVEN, priority 2015, dated 2020).
Read-outs that look alike come from different tables or passages of the source.

Tests used:
[1] = system: C. albicans SC5314 + S. epidermidis; experiment: mixed C. albicans/S. epidermidis biofilm assay, selective plating; assay type: cell-based, Candida albicans; Staphylococcus epidermidis; details: for activity at 25 µM: 25 μM (Table 5); for activity at 100 µM: 100 μM (Table 5)
Procedure: The concentrations 25 μM (0.0625% DMSO or ethanol) and 100 μM (0.25% DMSO or ethanol) were tested. After 24 h of incubation at 37° C., biofilms were washed with PBS and fresh medium with or without compounds was added. After further incubation for 48 h at 37° C., the biofilms were washed with PBS after which the cells were re-suspended in 100 μl of PBS by scraping off, sonication (1 min, 45 kHz, USC300-T; VWR, Radnor, Pa., USA) and vigorously pipetting up-and-down. Finally, the biofilm cells were diluted in PBS and plated on YPD agar plates containing 100 mg/L ampicillin and TSA plates containing 25 mg/L amphotericin B, to determine the number of fungal and bacterial CFUs after 2 days of incubation at 37° C., respectively. The percentage of C. albicans SC5314 and S. epidermidis cells was determined relative to the DMSO or ethanol control treatment.

[2] = system: osteoblasts (OB); experiment: mammalian-cell viability assay, trypan blue staining; assay type: cell-based; details: 12.5 μM; for proliferation (in words): 6 days exposure
Procedure: (§1) Cell viability of two human primary cell types, namely, osteoblasts (OB) and bone-marrow derived mesenchymal stem cells (MSC) was tested according to the ISO 10993-5 standard, as previously described. Briefly, cells were seeded in 96-well tissue culture test plates (TPP, Switzerland) at 5×10^3 cells/cm^2 in Advanced DMEM cell culture media supplemented with 10% serum, 1× GlutaMAX, 0.05 mg/mL Gentamycin, and were allowed to attach overnight. The next day, the cells were exposed to (i) cell culture medium and medium with the corresponding control (0.5% ethanol or DMSO) (negative controls), (ii) medium with 0.05% phenol (cytotoxic control), and (iii) medium with compounds (12.5 μM) and incubated for 2 h, 48 h and 6 days (8 repeats for each condition). At each time-point the numbers of viable and dead cells were determined directly by trypan blue staining, and indirectly by measuring the metabolic activity with MTT (3-(4,5-dimethylthiazol-2-yl)-2,5-diphenyltetrazolium bromide) staining.
(§2) The medium was removed from the wells, and 1/3 trypan blue in Dulbecco's modified Eagle's medium (DMEM) was added to the cells, incubated for 3 min, after which trypan blue was removed and DMEM medium was added to the wells. In each of four wells, two microscopy fields were counted for viable (transparent) and dead (blue) cells.

[3] = system: osteoblasts (OB); experiment: osteogenic differentiation, calcium and DNA assay; assay type: cell-based, human; details: 12.5 μM, calcium content normalized by DNA, versus solvent control
Procedure: (§3) The effect on osteogenic differentiation potential was assessed as previously described. Only the substances that allowed survival of the cells for more than 3 weeks, which is the time needed for mature osteogenic differentiation, were tested. Briefly, osteoblasts and bone-marrow derived mesenchymal stem cells were cultured in a positive solvent control (osteogenic medium with 0.5% DMSO or ethanol background), a negative control (medium without osteogenic supplements) and treated samples (osteogenic medium, 0.5% DMSO or ethanol background and 12.5 μM of test compound) with four repeats per condition. Mesenchymal stem cells and osteoblast cell cultures were harvested after 3 or 5 weeks, respectively, for the calcium and DNA assay.
(§4) Calcium deposition of osteoblasts and mesenchymal stem cells was measured with the Calcium CPC LiquiColor test (Stanbio Laboratory, Boerne, Tex.) as previously described. Briefly, cell cultures were extracted with 5% trichloroacetic acid (500 μl per sample), O-cresolphtalein complex was added, and the calcium content was determined spectrophotometrically at 550 nm. DNA content was determined as previously described. DNA values were used to normalize the calcium content. Four wells per condition were examined, and two samples from each well were taken for each assay.

[4] = system: bone-marrow derived mesenchymal stem cells (MSC); experiment: osteogenic differentiation, calcium and DNA assay; assay type: cell-based, human; details: 12.5 μM, calcium content normalized by DNA, versus solvent control
Procedure: as §3, §4

[5] = system: osteoblasts (OB); experiment: metabolic activity, MTT staining; assay type: cell-based; details: 12.5 μM, 6 days treatment
Procedure: as §1
(§5) The medium was removed from the wells and 100 μl of medium, supplemented with 10% serum and 0.5 mg/mL MTT was added to the cells. The cells were incubated overnight at 37° C. and 5% CO2. The next day the medium with MTT was removed and 100 μl acidic isopropanol was added. The cells were then centrifuged at 2300 g and 50 μl of the supernatant was transferred to a new 96-well plate. The absorbance was measured at 570 nm and the background was measured at 660 nm. Four wells per condition were examined.

[6] = system: bone-marrow derived mesenchymal stem cells (MSC); experiment: metabolic activity, MTT staining; assay type: cell-based; details: 12.5 μM, 6 days treatment
Procedure: as §1, §5

[7] = system: C. albicans SC5314; experiment: inhibition of C. albicans biofilms, cell titer blue (CTB) quantification; assay type: cell-based, Candida albicans; details: monospecies biofilm; novel compounds: highest concentration tested 100 μM
Procedure: The potential of the compounds to prevent C. albicans SC5314 biofilm formation was assessed using the cell titer blue (CTB) quantification method (26). For the CTB method, an overnight culture of C. albicans SC5314 was washed with PBS and a cell suspension of 10^6 cells/ml (OD600=0.1) was prepared in RPMI 1640 medium (pH 7.0). […] After 16 h of static incubation at 37° C., biofilms were washed and quantified with CTB as described previously.

[8] = system: bone-marrow derived mesenchymal stem cells (MSC); experiment: mammalian-cell viability assay, trypan blue staining; assay type: cell-based; details: 12.5 μM, 6 days exposure
Procedure: as §1, §2

[9] = system: E. coli TG1; experiment: static peg (Calgary Biofilm Device) anti-biofilm assay, crystal violet and OD600
[10] = system: E. coli TG1 + P. aeruginosa PA14; experiment: mixed E. coli/P. aeruginosa biofilm assay, crystal violet; assay type: cell-based
Procedure: Overnight cultures of E. coli TG1 and P. aeruginosa PA14, were diluted 1/100 in the same vial of TSB 1/20 to form a mixed culture suspension.

[11] = C. albicans in mixed biofilm with S. epidermidis, read-out: CFUs % survival C.a.
[12] = S. epidermidis in mixed biofilm with C. albicans, read-out: CFUs % survival Se.
[13] = S. epidermidis in mixed biofilm with C. albicans, read-out: CFUs % survival S.c.

`CCCCCCCCn1c(-c2ccc(Br)cc2)cnc1NCC(C)C` [Compound 8c, 5-(4-bromophenyl)-N-isobutyl-1-octyl-1H-imidazol-2-amine] was tested, and the “effect on the C. albicans/S. epidermidis mixture (in words)” value [1] was “only reduced C. albicans”, the activity at 25 µM [1, 11] was 3.2% and the activity at 100 µM [1, 11] was 8.4%. The “proliferation (in words)” value [2] was “increase in proliferation”, the “cell viability (in words)” value ([2]; 6 days of exposure, trypan blue) was “very slightly reduced viability” and the “calcium deposition (in words)” value [3] was “induced the calcium deposition”. For the same compound, the “calcium deposition (in words)” value [4] was “induced the calcium deposition”, the “metabolic activity compared to the solvent control (in words)” value [5] was “increased” and the “metabolic activity compared to the solvent control (in words)” value [6] was “increased”. The “anti-biofilm activity (in words)” value [7] was “not active”.
Compound `CCCCCCCCn1c(-c2ccccc2)cnc1NC1CCCC1` [Compound 8e, N-cyclopentyl-1-octyl-5-phenyl-1H-imidazol-2-amine] has an activity at 25 µM [1, 11] of 10%, an activity at 100 µM [1, 11] of 2.5% and an activity at 100 µM [1, 12] of 0%. The “proliferation (in words)” value [2] was “slightly reduced”, the “proliferation (in words)” value [8] was “slightly reduced” and the “anti-biofilm activity (in words)” value ([9]; biofilm at 37° C.) was “showed activity”. For the same compound, the “anti-biofilm activity (in words)” value ([9]; biofilm cells at 25° C.) was “potent activity” and the “inhibition of the mixed biofilm P. aeruginosa/E. coli (in words)” value [10] was “at higher concentrations”.
`CCCCCCCCn1c(-c2ccc(Cl)cc2)cnc1NC1CCCC1` [Compound 8f, 5-(4-chlorophenyl)-N-cyclopentyl-1-octyl-1H-imidazol-2-amine] was tested, and the activity at 25 µM [1, 11] was 2.9%, the activity at 100 µM [1, 11] was 7.2% and the activity at 25 µM [1, 13] was 2.5%. The activity at 100 µM [1, 12] was 0.3%, the “proliferation (in words)” value [8] was “slightly reduced” and the “anti-biofilm activity (in words)” value ([9]; biofilm cells at 25° C.) was “potent activity”. The “inhibition of the mixed biofilm P. aeruginosa/E. coli (in words)” value [10] was “at higher concentrations”.
With `CCCCCCCCn1c(-c2ccc(Cl)c(Cl)c2)cnc1NC1CCCC1` [Compound 8h, 5-(3,4-dichlorophenyl)-N-cyclopentyl-1-octyl-1H-imidazol-2-amine] the activity at 25 µM [1, 11] was 6.7%, the activity at 100 µM [1, 11] was 3.5% and the activity at 25 µM [1, 13] was 2%. The activity at 100 µM [1, 12] was 2.2%, the “proliferation (in words)” value [2] was “increase in proliferation” and the “calcium deposition (in words)” value [3] was “induced the calcium deposition”. The “calcium deposition (in words)” value [4] was “induced the calcium deposition”, the “metabolic activity compared to the solvent control (in words)” value [5] was “increased” and the “metabolic activity compared to the solvent control (in words)” value [6] was “increased”. The “anti-biofilm activity (in words)” value [7] was “not active”.
